One experiment concerns rat EAE model. Put plainly: Lewis rat model of experimental autoimmune encephalomyelitis (EAE). Format: in vivo. The settings on record: 10 mg/kg/day oral gavage. The method, then: 7- to 10-week female Lewis rats (The Jackson Laboratory, Bar Harbor, Me.) were used since they are susceptible to EAE, and since MS occurs at a 2:1 ratio between females and males respectively. Rats were immunized either at the base of the tail (or in one hind footpad) with myelin antigen myelin basic peptide, MBP 85-99. Peptide antigens were mixed with complete Freund's adjuvant including killed mycobacterium tuberculosis at a doses of 4 mg/ml. 200 micrograms of antigen mixed with the 0.1 ml emulsion of adjuvant were used. The myelin antigens were dissolved in phosphate buffered saline.
Nine rats were used in each of the following groups: EAE control, vehicle control, compound 15 (prevention), compound 15 (pro-treatment), phenyl-N-butyl-nitrone (prevention) and phenyl-N-butyl-nitrone (pro-treatment). For the treatment model, fifteen rats were used in each of three groups: EAE control, vehicle control, compound 15 (treatment). Drugs were administered via oral gavage feeding. Rats were dosed daily after the first dose until recovery from acute disease (typically 20 days after EAE induction). Compound 15 was dosed at 10 mg/kg/day and phenyl-N-butyl-nitrone was dosed at 100 mg/kg/day. In the prevention model, first dose of the drugs was administered 7 days prior to EAE induction. In the pro-treatment model, first dose was administered 4 days after EAE induction. In the treatment model, first dose was administered at the peak of the disease after animals were randomized into equal groups.
All rats were followed daily for clinical signs and weighed every four days. Longer water tubes were used to allow mice to drink when they develop paralysis, and chow was put on the floor of the cage to facilitate nourishment if the rats were paralyzed. Rats were scored as follows: 0, healthy; 1, tail weakness or paralysis; 2, paraparesis (incomplete paralysis of one or two hind limbs or plegia of one hind limb); 3, paraplegia extending to the thorax; 4, forelimb weakness, paralysis with hind limb paraparesis or paraplegia; 5, moribund or dead animal.

The next experiment deals with T1, CCR7 (Homo sapiens, UniProt P32248).
T1 construct: Plasmid containing full-length human CCR7 cDNA; host or cells: RBL-2H3 (ATCC CRL-2256), transient transfection
T1 sequence (P32248 25-378): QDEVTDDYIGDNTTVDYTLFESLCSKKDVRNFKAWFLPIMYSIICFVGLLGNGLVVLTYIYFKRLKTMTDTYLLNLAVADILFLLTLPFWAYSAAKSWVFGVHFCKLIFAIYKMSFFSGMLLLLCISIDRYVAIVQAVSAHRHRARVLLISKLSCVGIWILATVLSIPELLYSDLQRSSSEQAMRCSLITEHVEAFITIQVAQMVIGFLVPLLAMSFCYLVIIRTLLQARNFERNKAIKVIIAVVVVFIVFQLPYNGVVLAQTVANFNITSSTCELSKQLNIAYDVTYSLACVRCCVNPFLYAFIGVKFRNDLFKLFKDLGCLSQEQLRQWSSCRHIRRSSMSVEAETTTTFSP
Put plainly: Migration of RBL-2H3 cells expressing CCR7. Particulars: RBL-2H3 cells expressing CCR7, 2 hours. In kind it is cell-based. The method, then:
(§1) RBL-2H3 cells were obtained from American Type Culture Collection (CRL-2256) and cultured in Minimum essential medium (MEM) with 10% heat-inactivated fetal bovine serum, 100 μg/ml penicillin/streptomycin. cDNA fragments encompassing chemokine receptor coding regions were obtained from cDNAs synthesized from HL-60 cells and/or human peripheral blood mononuclear cells by the polymerase chain reaction. Expression constructs of chemokine receptors were generated by cloning PCR fragments into expression vector pEF6/V5-TOPO (K9610-20, Invitrogen). Plasmid containing full-length human CXCR5 cDNA (human CXCR50TN00, pcDNA3.1+) was purchased from UMR cDNA Resource Center (Rolla, Mo.). Plasmid containing full-length human CCR7 cDNA (human CCR0700000, pcDNA3.1+) was purchased from UMR cDNA Resource Center (Rolla, Mo.). Transient transfections were carried out with Fugene 6 transfection reagent (1814443, Roche Applied Science) according to the manufacturer's instructions. […]
(§2) Following the migration assays, cells that had migrated to the bottom wells were quantitated using CyQuant reagents according to the manufacturer's instructions (Molecular Probes, Eugene, Oreg.). […] The fluorescence intensity (excitation wavelength at 485 nm and emission wavelength at 530 nm) was measured using Safire Spectrometer (Tecan; Research Triangle Park, N.C.).

The next experiment has as its target CXCR4 (Homo sapiens, UniProt P61073). Put plainly: Migration of RBL-2H3 cells expressing CXCR4. Format: cell-based. Details: cDNA fragments encompassing chemokine receptor coding regions; expressed in transfected cells. Particulars: RBL-2H3 cells expressing CXCR4, 2 hours. The method, then: as §1, §2

Sequence of CXCR4 (P61073 whole entry, the tested form may be a part): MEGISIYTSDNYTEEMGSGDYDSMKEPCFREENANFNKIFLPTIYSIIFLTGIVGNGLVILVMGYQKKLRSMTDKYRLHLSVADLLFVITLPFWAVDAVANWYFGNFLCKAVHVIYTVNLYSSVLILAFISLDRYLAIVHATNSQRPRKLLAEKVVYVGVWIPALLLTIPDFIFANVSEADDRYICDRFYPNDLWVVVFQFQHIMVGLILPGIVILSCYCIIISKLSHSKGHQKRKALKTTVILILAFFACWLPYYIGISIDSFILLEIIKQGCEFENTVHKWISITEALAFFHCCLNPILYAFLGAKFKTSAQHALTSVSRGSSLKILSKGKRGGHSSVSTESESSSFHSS

For the molecule `COCOc1c(C(C)(C)C)cc(/C=[N+](\[O-])C(C)(C)C)cc1C(C)(C)C` [Compound 15, α-(4-methoxymethoxy-3,5-di-tert-butyl-phenyl)-N-tert-butylnitrone], the “disease free rats, treatment model” value in the experiment on rat EAE model (first dose at the peak of EAE, compared to controls, FIG. 14) was “significantly more rats treated with compound 15 were disease free”. The “clinical scores, pro-treatment model” value in the experiment on rat EAE model (rats, first dose 4 days after EAE induction, compared to control or PBN, FIG. 13) is recorded as “significantly better clinical scores”. Also, the “change of clinical scores on day 15, pro-treatment model” value in the experiment on rat EAE model (rats, first dose 4 days after EAE induction, day 15) was “improved dramatically”. Also, in the experiment with rat EAE model (rats, first dose 7 days prior to EAE induction, compared to controls and to PBN (100 mg/kg/day), FIG. 12), the “clinical scores, prevention model” value was “significantly better clinical scores”.

As for `CCC(C)c1cc(/C=[N+](\[O-])C(C)(C)C)cc(C(C)CC)c1O` (stereo not drawn) [Compound 17], the “induction of cell migration” value on CCR7 and on CXCR4 was “induced migration” throughout.

These data come from patent publication US20050215646A1, “Methods for treating multiple sclerosis and pharmaceutical compositions therefor” (Renovis, Inc., priority 2004, published 2005).
